# Test results: US20170166555A1, “FUNCTIONALISED AND SUBSTITUTED INDOLES AS ANTI-CANCER AGENTS” (Novogen Limited, priority 2013, published 2017)
# Tests used:
# A375 melanoma xenograft = A375 melanoma xenograft efficacy study; format: in vivo, Foxn-1 nu/nu athymic mice; details: hydrochloride salt, 20 mg/kg intravenously QD, 15 days
# Description: FIG. 6: Tumor volumes ±SEM of animals treated with Control (Carbonate vehicle) or compound 4015 (20 mg/kg, I.V., QD).
# In vivo efficacy studies for compound 4015 hydrochloride salt were conducted using an A375 melanoma xenograft model in Foxn-1 nu/nu athymic mice. The human melanoma cell line A375 (sourced from American Type Culture Collection (ATCC), USA) was used for developing the flank xenograft model. Briefly, five million cells were injected subcutaneously in the right flank region of the animal. When the tumors reached 130-150 mm^3 the animals were randomized into two groups, each group with 8 animals in them, so that the average tumor volume of all the groups was same.
# First group received vehicle (sodium bicarbonate buffer) intravenously once a day (QD). The second group received compound 4015 at 20 mg/kg, intravenously (QD) (Table 7). The volume of dosing to each animal was calculated and adjusted every day based on individual body weight measured prior to dosing.
# Animals were treated from the day of randomization (Day 1) for 15 days. Body weight and tumor dimensions (length and diameter) were measured three times in a week including the termination day of the study. Throughout the study period, mice were monitored daily for clinical condition.
# [1] = tested on: glioblastoma (U251) cells; assay: Cell viability, CellTiter 96 AQueous, 72 hours; format: cell-based; details: Homo sapiens, U-251
# Description: The anti-proliferative activity of compound 4093 against ovarian cancer (SKOV3) and glioblastoma (U251) cells was also evaluated (Table 6). Briefly, cells were seeded at 2000 cells/well in a 96 well plate. 24 hrs post plating, each cell line was exposed to various concentrations of ATM-4093 (10, 5, 3,1, 0.7, 0.5, 0.3, 0.1 μM) for 72 hours. Cell viability was determined using CellTiter 96 AQueous (Promega) and absorbance measured at 490 nm on the SpectraMax M2 plate reader. Cell viability was normalized to control (vehicle alone) and dose-response curves, and half maximal effective concentration (EC50) values were determined using Graph Pad Prism 6 (nonlinear regression sigmoidal dose-response variable slope).
structure (smiles),measurement,setting,value
"Cc1c(C)n(CCCN(C)C)c2ccc(CN3CCN(CCc4ccccc4)CC3)cc12 [Compound 4015, 3-(2,3-dimethyl-5-((4-phenethylpiperazin-1-yl)methyl)-1H-indol-1-yl)-N,N-dimethylpropan-1-amine]",Reduction in tumor growth compared to control,A375 melanoma xenograft,26%
"Cc1c(C)n(CCCN(C)C)c2ccc(Oc3ccc(C(=O)Nc4ccc(F)cc4)cc3)cc12 [Compound 4093, 4-((1-(3-(dimethylamino)propyl)-2,3-dimethyl-1H-indol-5-yl)oxy)-N-(4-fluorophenyl)benzamide]",IC50,[1],0.5 µM
